{"source": "patent US7288659B2", "about": "“Acylaminothiazole derivatives, their preparation and therapeutic use” (Sanofi-Aventis, priority 2001, dated 2007)"}
{"units": {"melting point": "°C"}}
{"smiles": "Cc1nc(NC(=O)[C@H](C)NC(=O)Cc2cc(F)cc(F)c2)sc1-c1ccccc1COC(C)C", "note": "[compound 27, (2S)-2-{[2-(3,5-difluorophenyl)acetyl]amino}-N-{5-[2-(isopropoxymethyl)phenyl]-4-methyl-1,3-thiazol-2-yl}propanamide]", "melting point": 74}
{"smiles": "Cc1nc(NC(=O)[C@H](C)NC(=O)Cc2cc(F)cc(F)c2)sc1-c1ccccc1COC1CCCC1", "note": "[compound 28, (2S)-N-(5-{2-[(cyclopentyloxy)methyl]phenyl}-4-methyl-1,3-thiazol-2-yl)-2-{[2-(3,5-difluorophenyl)-acetyl]amino}propanamide]", "melting point": 141}
{"smiles": "C[C@H](NC(=O)Cc1ccc(F)c(F)c1)C(=O)Nc1ncc(-c2ccccc2COC2CCCCC2)s1", "note": "[compound 30, (2S)-N-(5-{2-[(cyclohexyloxy)methyl]phenyl}-1,3-thiazol-2-yl)-2-{[2-(3,4-difluorophenyl)acetyl]amino}-propanamide]", "melting point": 136}
{"smiles": "CC(C)[C@H](NC(=O)Cc1cc(F)cc(F)c1)C(=O)Nc1ncc(-c2ccccc2COC2CCCCC2)s1", "note": "[compound 31, (2S)-N-(5-{2-[(cyclohexyloxy)methyl]phenyl}-1,3-thiazol-2-yl)-2-{[2-(3,5-difluorophenyl)acetyl]amino}-3-methylbutanamide]", "melting point": 87}
{"smiles": "CC[C@H](NC(=O)Cc1cc(F)cc(F)c1)C(=O)Nc1ncc(-c2ccccc2COC2CCCCC2)s1", "note": "[compound 32, (2S)-N-(5-{2-[(cyclohexyloxy)methyl]phenyl}-1,3-thiazol-2-yl)-2-{[2-(3,5-difluorophenyl)acetyl]amino}-butanamide]", "melting point": 68}
{"smiles": "COc1ccc(CC(=O)N[C@@H](C)C(=O)Nc2ncc(-c3ccccc3COC3CCCCC3)s2)cc1", "note": "[compound 33, (2S)-N-(5-{2-[(cyclohexyloxy)methyl]phenyl}-1,3-thiazol-2-yl)-2-{[2-(4-methoxyphenyl)acetyl]amino}-propanamide]", "melting point": 74}
{"smiles": "COc1cccc(CC(=O)N[C@@H](C)C(=O)Nc2ncc(-c3ccccc3COC3CCCCC3)s2)c1", "note": "[compound 34, (2S)-N-(5-{2-[(cyclohexyloxy)methyl]phenyl}-1,3-thiazol-2-yl)-2-{[2-(3-methoxyphenyl)acetyl]amino}-propanamide]", "melting point": 94}
{"smiles": "COc1cc(CC(=O)N[C@@H](C)C(=O)Nc2ncc(-c3ccccc3COC3CCCCC3)s2)cc(OC)c1", "note": "[compound 35, (2S)-N-(5-{2-[(cyclohexyloxy)methyl]phenyl}-1,3-thiazol-2-yl)-2-{[2-(3,5-dimethoxyphenyl)acetyl]amino}-propanamide]", "melting point": 73}
{"smiles": "CC(C)C[C@H](NC(=O)Cc1cc(F)cc(F)c1)C(=O)Nc1ncc(-c2ccccc2COC2CCCCC2)s1", "note": "[compound 36, (2S)-N-(5-{2-[(cyclohexyloxy)methyl]phenyl}-1,3-thiazol-2-yl)-2-{[2-(3,5-difluorophenyl)acetyl]amino}-4-methylpentanamide]", "melting point": 67}
{"smiles": "CC(C)(C)[C@H](NC(=O)Cc1cc(F)cc(F)c1)C(=O)Nc1ncc(-c2ccccc2COC2CCCCC2)s1", "note": "[compound 37, (2S)-N-(5-{2-[(cyclohexyloxy)methyl]phenyl}-1,3-thiazol-2-yl)-2-{[2-(3,5-difluorophenyl)acetyl]amino}-3,3-dimethylbutanamide]", "melting point": 73}
{"smiles": "C[C@H](NC(=O)Cc1cc(F)cc(F)c1)C(=O)Nc1ncc(-c2ccc(COC3CCCCC3)cc2)s1", "note": "[compound 39, (2S)-N-(5-{4-[(cyclohexyloxy)methyl]phenyl}-1,3-thiazol-2-yl)-2-{[2-(3,5-difluorophenyl)acetyl]amino}-propanamide]", "melting point": 155}
{"smiles": "CCOCc1ccccc1-c1cnc(NC(=O)[C@H](C)NC(=O)Cc2cc(F)cc(F)c2)s1", "note": "[compound 41, (2S)-2-{[2-(3,5-difluorophenyl)acetyl]amino)-N-(5-[2-(ethoxymethyl)phenyl]-1,3-thiazol-2-yl}propanamide]", "melting point": 173}
{"smiles": "CCC[C@H](NC(=O)Cc1cc(F)cc(F)c1)C(=O)Nc1ncc(-c2ccccc2COC2CCCCC2)s1", "note": "[compound 42, (2S)-N-(5-{2-[(cyclohexyloxy)methyl]phenyl}-1,3-thiazol-2-yl)-2-{[2-(3,5-difluorophenyl)acetyl]amino}-pentanamide]", "melting point": 134}
{"smiles": "C[C@H](NC(=O)Cc1cc(F)cc(F)c1)C(=O)Nc1ncc(-c2cccc(COCC3CCCCC3)c2)s1", "note": "[compound 43, (2S)-N-(5-{3-[(cyclohexylmethoxy)methyl]phenyl}-1,3-thiazol-2-yl)-2-{[2-(3,5-difluorophenyl)acetyl]amino}propanamide]", "melting point": 144}
{"smiles": "CC(C)OCc1cccc(-c2cnc(NC(=O)[C@H](C)NC(=O)Cc3cc(F)cc(F)c3)s2)c1", "note": "[compound 45, (2S)-2-{[2-(3,5-difluorophenyl)acetyl]amino}-N-(5-{3-(isopropoxymethyl)phenyl}-1,3-thiazol-2-yl)propanamide]", "melting point": 136}
{"smiles": "C[C@H](NC(=O)Cc1cc(F)cc(F)c1)C(=O)Nc1ncc(-c2ccc(COCC3CCCCC3)cc2)s1", "note": "[compound 46, (2S)-N-(5-{4-[(cyclohexylmethoxy)methyl]phenyl}-1,3-thiazol-2-yl)-2-{[2-(3,5-difluorophenyl)acetyl]-amino}propanamide]", "melting point": 166}
{"smiles": "CCCC[C@H](NC(=O)Cc1cc(F)cc(F)c1)C(=O)Nc1ncc(-c2ccccc2COC2CCCCC2)s1", "note": "[compound 47, (2S)-N-(5-{2-[(cyclohexyloxy)methyl]phenyl}-1,3-thiazol-2-yl)-2-{[2-(3,5-difluorophenyl)acetyl]amino}-hexanamide]", "melting point": 77.6}
{"smiles": "C[C@H](NC(=O)Cc1cccc(OC(F)(F)F)c1)C(=O)Nc1ncc(-c2ccccc2COC2CCCCC2)s1", "note": "[compound 48, (2S)-N-(5-{2-[(cyclohexyloxy)methyl]phenyl}-1,3-thiazol-2-yl)-2-{[2-(3-trifluoromethoxyphenyl)acetyl]-amino}propanamide]", "melting point": 60}
{"smiles": "C[C@H](NC(=O)Cc1cc(F)cc(F)c1)C(=O)Nc1ncc(-c2ccccc2COC2CCCC2)s1", "note": "[compound 49, (2S)-N-(5-{2-[(cyclopentyloxy)methyl]phenyl}-1,3-thiazol-2-yl)-2-{[2-(3,5-difluorophenyl)acetyl]amino}-propanamide]", "melting point": 236}
{"smiles": "CCC[C@H](NC(=O)Cc1cc(F)cc(F)c1)C(=O)Nc1nc(C)c(-c2ccccc2COC2CCCCC2)s1", "note": "[compound 52, (2S)-N-(5-{2-[(cyclohexyloxy)methyl]phenyl}-4-methyl-1,3-thiazol-2-yl)-2-{[2-(3,5-difluorophenyl)-acetyl]amino}pentanamide]", "melting point": 94}
{"smiles": "CCC[C@H](NC(=O)[C@H](O)c1cc(F)cc(F)c1)C(=O)Nc1nc(C)c(-c2ccccc2COC2CCCCC2)s1", "note": "[compound 53, (2S)-N-(5-{2-[(cyclohexyloxy)methyl]phenyl}-4-methyl-1,3-thiazol-2-yl)-2-{[(2R)-2-(3,5-difluorophenyl)-2-hydroxyacetyl]amino}pentanamide]", "melting point": 99.4}
{"smiles": "C[C@H](NC(=O)Cc1cc(F)cc(F)c1)C(=O)Nc1ncc(-c2ccccc2CSC2CCCCC2)s1", "note": "[compound 54, (2S)-N-(5-{2-[(cyclohexylsulfanyl)methyl]phenyl}-1,3-thiazol-2-yl)-2-{[2-(3,5-difluorophenyl)acetyl]-amino}propanamide]", "melting point": 91.6}
